Test results as given in patent publication US9556228B2 (Universitaet Leipzig, priority 2011, dated 2017).
Values after ≈ are worked out from the molar mass of the structure shown. Peptide text beside a SMILES is read from it. * marks the point of attachment. Orn(α-tetramethylguanidino) = CN(C)C(=N[C@@H](CCCN)C(=O)*)N(C)C

Columns and labels:
[1] = test system: Pseudomonas aeruginosa DSM 9644; format: cell-based
Procedure: (§1) The minimum inhibitory concentrations (MIC) of the peptides were determined in a double assay of triplicates using a positive control sample (gentamycin) and a negative control sample (0.9% NaCl solution), according to a modified protocol from Wiegand et al. (Wiegand, 2008).
(§2) […] Overnight cultures were adjusted using ⅛ MHB to approximately 1.5×10^7 colony forming units per mL. Of these, 50 μL of peptide solution per well was mixed with 50 μL bacteria solution each to obtain an initial concentration of […] bacteria per well. After 20 hours of incubation at 37′C, the absorption was determined at 595 nm (microplate reader, Wallac Victor3, Perkin Elmer). The minimum inhibitory concentration was identified as the lowest peptide concentration at which no bacterial growth could be detected.
(§3) In the experiment, the antibacterial activity of the peptides according to the invention in relation to the following bacterial strains was analyzed: Pseudomonas aeruginosa PAO1 (wt strain), Pseudomonas aeruginosa DSM 9644, Staphylococcus aureus DSM 1104/ATCC 25923, Staphylococcus aureus ATCC 6247, Escherichia coli UB 1005 (F—, nalA37, metB1) and Escherichia coli ATCC25922.

S. aureus DSM 6247 [2] = format: cell-based, Staphylococcus aureus
[3] = test system: Escherichia coli ATCC25922; format: cell-based
K. pneumoniae DSM 681 = format: cell-based
Procedure: as §1, §2

E. coli BL21AI = format: cell-based, Escherichia coli
in vitro = settings: mouse, 25% mouse serum
Procedure: The serum stability of selected apidaecin derivatives was also measured.

[4] = test system: Pseudomonas aeruginosa PAO1 (wt strain); format: cell-based; settings: for Improvement over Native Sequence (SEQ No. 2) P. aeruginosa PAO1 wt: fold, from MIC in 1/8 MHB
Procedure: as §1
(§4) For this purpose, the peptides were dissolved in water and were diluted in a double dilution series with 1/8 MH (eight-fold diluted Mueller-Hinton-Medium—2.6 g/L, Merck) in sterile 96-well, plates (Greiner Bio-One GmbH) in twelve dilution steps from 128 μg/mL to 62.5 ng/mL. Overnight cultures were adjusted using ⅛ MHB to approximately 1.5×10^7 colony forming units per mL. Of these, 50 μL of peptide solution per well was mixed with 50 μL bacteria solution each to obtain an initial concentration of […] bacteria per well. After 20 hours of incubation at 37′C, the absorption was determined at 595 nm (microplate reader, Wallac Victor3, Perkin Elmer). The minimum inhibitory concentration was identified as the lowest peptide concentration at which no bacterial growth could be detected.
as §3

[5] = test system: Staphylococcus aureus DSM 1104/ATCC 25923; format: cell-based; settings: for MIC S. aureus ATCC 25923 / MIC S. aureus DSM 1104/ATCC 25923: DSM 1104; for Improvement over Native Sequence (SEQ No. 2) S. aureus ATCC 25923: fold, from MIC in 1/8 MHB
Procedure: as §1, §4, §3

Escherichia coli UB 1005 = test: Minimum inhibitory concentration (MIC), broth microdilution; format: cell-based; settings: for MIC E. coli UB1005: 1/8 MHB, Table 4; for Improvement over Native Sequence (SEQ No. 2) E. coli UB1005: fold, from MIC in 1/8 MHB
Procedure: as §1, §4, §3

S. aureus DSM 6247 [6] = format: cell-based, Staphylococcus aureus; remark: listed apart in the source
Procedure: as §1, §4, §3

E. coli DSM 1103 = format: cell-based, Escherichia coli
Procedure: as §1, §4

SMILES | MIC P. aeruginosa DSM 9644 TSB [1] | MIC S. aureus DSM 6247 MHB (S. aureus DSM 6247 [2]) | MIC E. coli ATCC 25922 TSB [3] | MIC K. pneumoniae DSM 681 TSB (K. pneumoniae DSM 681) | MIC E. coli BL21AI TSB (E. coli BL21AI) | half-life (in vitro) | MIC P. aeruginosa PAO DSM 9644 [1] | MIC P. aeruginosa PAO1 wt [4] | Improvement over Native Sequence (SEQ No. 2) P. aeruginosa PAO1 wt [4] | MIC S. aureus ATCC 25923 [5] | MIC S. aureus DSM 1104/ATCC 25923 [5] | Improvement over Native Sequence (SEQ No. 2) S. aureus ATCC 25923 [5] | MIC E. coli ATCC 25922 [3] | MIC E. coli UB1005 (Escherichia coli UB 1005) | Improvement over Native Sequence (SEQ No. 2) E. coli UB1005 (Escherichia coli UB 1005) | MIC S. aureus DSM 6247 (S. aureus DSM 6247 [6]) | MIC E. coli DSM 1103 (E. coli DSM 1103)
CC[C@H](C)[C@H](NC(=O)[C@H](Cc1ccc(O)cc1)NC(=O)[C@@H](NC(=O)[C@@H]1CCCN1C(=O)[C@H](CCCNC(=N)N)NC(=O)[C@H](CC(N)=O)NC(=O)[C@H](CC(N)=O)NC(=O)[C@H](CCCN)N=C(N(C)C)N(C)C)C(C)C)C(=O)N1CCC[C@H]1C(=O)N[C@@H](CCCNC(=N)N)C(=O)N1CCC[C@H]1C(=O)N[C@@H](CCCNC(=N)N)C(=O)N1CCC[C@H]1C(=O)N1CCC[C@H]1C(=O)N[C@@H](Cc1c[nH]cn1)C(=O)N1CCC[C@H]1C(=O)N[C@@H](CCCNC(=N)N)C(=O)N[C@@H](CC(C)C)C(N)=O [compound 92] ({Orn(α-tetramethylguanidino)}-NNRPVYIPRPRPPHPRL-NH2; N-terminus and C-terminus assumed) | 8 µg/mL (≈ 3.49 µM) | 8 µg/mL (≈ 3.49 µM) | 2 µg/mL (≈ 0.873 µM) | 2 µg/mL (≈ 0.873 µM) | 1 µg/mL (≈ 0.437 µM) | 15 ± 1 min |  |  |  |  |  |  |  |  |  |  | 
CC[C@H](C)[C@H](NC(=O)[C@H](Cc1ccc(O)cc1)NC(=O)[C@@H](NC(=O)[C@@H]1CCCN1C(=O)[C@H](CCCNC(=N)N)NC(=O)[C@H](CC(N)=O)NC(=O)[C@H](Cc1c[nH]c2ccccc12)NC(=O)CN)C(C)C)C(=O)N1CCC[C@H]1C(=O)N[C@@H](CCCNC(=N)N)C(=O)N1CCC[C@H]1C(=O)N[C@@H](CCCNC(=N)N)C(=O)N[C@@H](CCCNC(=N)N)C(=O)N1CCC[C@H]1C(=O)N[C@@H](Cc1c[nH]cn1)C(=O)N1CCC[C@H]1C(=O)N[C@@H](CCCNC(=N)N)C(=O)N[C@@H](CC(C)C)C(N)=O [compound 50] (H-GWNRPVYIPRPRRPHPRL-NH2; N-terminus assumed) |  |  |  |  |  |  | 32 µg/mL (≈ 14.1 µM) | 32 µg/mL (≈ 14.1 µM) | 16 | 2 µg/mL (≈ 0.882 µM) | 2 µg/mL (≈ 0.882 µM) | 128 | 8 µg/mL (≈ 3.53 µM) | 2.5 µg/mL (≈ 1.1 µM) | 2 | 2 µg/mL (≈ 0.882 µM) | 
CC[C@H](C)[C@H](NC(=O)[C@H](Cc1ccc(O)cc1)NC(=O)[C@@H](NC(=O)[C@@H]1CCCN1C(=O)[C@H](CCCNC(=N)N)NC(=O)[C@H](CC(N)=O)NC(=O)[C@H](CC(N)=O)NC(=O)CN)C(C)C)C(=O)N1CCC[C@H]1C(=O)N[C@@H](CCC(N)=O)C(=O)N1CCC[C@H]1C(=O)N[C@@H](CCCNC(=N)N)C(=O)N1CCC[C@H]1C(=O)N1CCC[C@H]1C(=O)N[C@@H](Cc1c[nH]cn1)C(=O)N1CCC[C@H]1C(=O)N[C@@H](CCCNC(=N)N)C(=O)N[C@@H](CC(C)C)C(=O)O [compound 2] (H-GNNRPVYIPQPRPPHPRL-OH; N-terminus assumed) |  |  |  |  |  |  | >256 µg/mL | 500 µg/mL (≈ 237 µM) | 1 | >125 µg/mL | >125 µg/mL | 1 | 2 µg/mL (≈ 0.949 µM) | 5 µg/mL (≈ 2.37 µM) | 1 | 256 µg/mL (≈ 121 µM) | 
CC[C@H](C)[C@H](NC(=O)[C@H](Cc1ccc(O)cc1)NC(=O)[C@@H](NC(=O)[C@@H]1CCCN1C(=O)[C@H](CCCNC(=N)N)NC(=O)[C@H](CC(N)=O)NC(=O)[C@H](CC(N)=O)NC(=O)[C@H](CCCN)N=C(N(C)C)N(C)C)C(C)C)C(=O)N1CCC[C@H]1C(=O)N[C@@H](CCCNC(=N)N)C(=O)N1CCC[C@H]1C(=O)N[C@@H](CCCNC(=N)N)C(=O)N1CCC[C@H]1C(=O)N1CCC[C@H]1C(=O)N[C@@H](Cc1c[nH]cn1)C(=O)N1CCC[C@H]1C(=O)N[C@@H](CCCNC(=N)N)C(=O)N[C@@H](CCCNC(=N)N)C(=O)O [compound 84] ({Orn(α-tetramethylguanidino)}-NNRPVYIPRPRPPHPRR-OH) |  |  |  |  |  |  | 64 µg/mL (≈ 27.4 µM) |  |  |  |  |  |  |  |  | 8 µg/mL (≈ 3.43 µM) | 4 µg/mL (≈ 1.71 µM)
